Data on one substance can be found in publication PMC3969243, “A PIP5 Kinase Essential for Efficient Chemotactic Signaling” (Current Biology, 2014).

For orientation: Km means the substrate concentration at which the rate is half of its maximum.

Test [1] addresses T1, PikI (Dictyostelium discoideum, UniProt Q55GN6, T262E).
T1 construct: gene DDB_G0267588
As to conditions: product PI(4,5)P2; phosphomimetic.

For test [2], the target named is T2, PikI (Dictyostelium discoideum, UniProt Q55GN6).
T2 construct: gene DDB_G0267588
T2 sequence (Q55GN6 whole entry): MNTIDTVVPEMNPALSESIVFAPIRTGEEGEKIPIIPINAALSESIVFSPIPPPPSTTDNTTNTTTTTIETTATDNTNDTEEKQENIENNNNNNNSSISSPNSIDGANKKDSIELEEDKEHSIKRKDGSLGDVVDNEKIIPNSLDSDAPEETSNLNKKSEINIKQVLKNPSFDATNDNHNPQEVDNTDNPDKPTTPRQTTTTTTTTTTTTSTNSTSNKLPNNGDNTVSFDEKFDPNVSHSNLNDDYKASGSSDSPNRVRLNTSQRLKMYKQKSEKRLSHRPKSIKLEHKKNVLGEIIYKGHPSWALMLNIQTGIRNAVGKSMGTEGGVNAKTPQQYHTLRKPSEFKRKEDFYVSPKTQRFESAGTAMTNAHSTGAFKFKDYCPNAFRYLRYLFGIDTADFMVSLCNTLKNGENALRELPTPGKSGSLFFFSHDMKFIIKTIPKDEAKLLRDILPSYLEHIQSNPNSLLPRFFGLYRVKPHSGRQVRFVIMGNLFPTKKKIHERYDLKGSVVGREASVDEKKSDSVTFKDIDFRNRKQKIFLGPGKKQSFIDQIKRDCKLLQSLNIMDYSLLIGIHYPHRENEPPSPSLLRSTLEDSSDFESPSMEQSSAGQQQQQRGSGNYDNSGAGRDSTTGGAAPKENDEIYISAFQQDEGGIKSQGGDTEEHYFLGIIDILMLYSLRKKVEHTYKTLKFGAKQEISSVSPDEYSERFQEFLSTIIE
Conditions: product PI(4,5)P2.

Test [3] deals with T3, PikI (Dictyostelium discoideum, UniProt Q55GN6, T262A).
T3 construct: gene DDB_G0267588
T3 sequence (Q55GN6 whole entry T262A): as the sequence (Q55GN6 whole entry) above, with T262A counted along it
As to conditions: product PI(4,5)P2.

T1 sequence (Q55GN6 whole entry T262E): as the sequence (Q55GN6 whole entry) above, with T262E counted along it

For PI(4)P, the Km was found to be 6.39 ± 3.69 µM in test [1], 5.74 ± 3.18 µM in test [2] and 4.6 ± 2.87 µM in test [3].
